From patent US11708367B2, “Compounds for the treatment of kinase-dependent disorders” (Exelixis, Inc., priority 2018, dated 2023)

Key:
Format in all cases: cell-based
Met = Met (Homo sapiens (Human), UniProt P08581); test: Met autophosphorylation ELISA in PC-3 cells; conditions: cellular, HGF-stimulated, phospho-Met ELISA, read-out: c-Met IC50
Experimental: PC-3 prostate cancer cells (ATCC #CRL-1435) were seeded at 4×10^4 cells/well onto 24-well plates (Greiner #662165), in DMEM (Thermo Fisher #11995-040) containing 10% FBS (Thermo Fisher #26140-079), 1% MEM NEAA (Thermo Fisher #11140-050), 1% GlutaMax (Thermo Fisher #35050-061), and 1% Penicillin Streptomycin (Thermo Fisher #15140-122). PC-3 cells were incubated at 37° C., 5% CO2 for 24 h and then starved for 3 h in serum-free medium. Test compounds were serially diluted to produce an 8-point dose curve in fresh serum-free medium to a final concentration of 0.3% DMSO (vehicle) and added to the cells and incubated for 1 h. Cells were then stimulated with 100 ng/mL recombinant human HGF (R&D Systems #294-HG-250) for 10 min, washed with cold PBS, and immediately lysed with 130 μL of cold IX lysis buffer [20 mM Tris, 137 mM sodium chloride, 2 mM EDTA, 10% glycerol, 1% NP-40 alternative, 1 mM activated sodium orthovanadate, 1 mM PefaBloc SC (Sigma-Aldrich #11429868001), protease/phosphatase inhibitor tablet (Thermo Fisher #A32959)]. Lysates were clarified by centrifugation and 100 μL/well added into the PathScan phospho-Met (panTyr) Sandwich ELISA (Cell Signaling Technology #7333). Assay was performed according to manufacturer's instructions. Positive control wells (100% activity) contained HGF-stimulated, DMSO-treated cell lysates. Negative control wells (0% activity) contained HGF-stimulated, reference inhibitor-treated cell lysates. IC50 values were calculated by nonlinear regression analysis using a 4-parameter logistic curve fit in ActivityBase XL (IDBS).

Mer = Mer (Homo sapiens (Human), UniProt Q12866); test: Mer autophosphorylation ELISA in transient transfected 293A cells; conditions: cellular, MERTK-transfected 293A cells, phospho-Mer ELISA
Experimental: 293A cells (Thermo Fisher #R70507) were seeded at 1.5×10^6 cells/well onto 100 mm dish (Greiner #664169), in DMEM (Thermo Fisher #11995-040) containing 10% FBS (Thermo Fisher #26140-079), 1% MEM NEAA (Thermo Fisher #11140-050), 1% GlutaMax (Thermo Fisher #35050-061), and 1% Penicillin Streptomycin (Thermo Fisher #15140-122). 293A cells were incubated at 37° C., 5% CO2 for 24 h and then transfected with 6 μg MERTK DNA (Genecopoeia #EX-Z8208-M02) using TransIT LT1 transfection reagent (Mirus-Bio #MIR2305). After 24 h incubation, the transfected 293A cells were seeded at 1×10^5 cells/well onto 96-well plates (Corning #3904) in DMEM growth medium overnight. Test compounds were serially diluted to produce an 8-point dose curve in fresh serum-free medium to a final concentration of 0.3% DMSO (vehicle) and added to the cells and incubated for 1 h. Cells were then immediately lysed with 150 μL of cold IX lysis buffer [20 mM Tris, 137 mM sodium chloride, 2 mM EDTA, 10% glycerol, 1% NP-40 alternative, 1 mM activated sodium orthovanadate, 1 mM PefaBloc SC (Sigma-Aldrich #11429868001), protease/phosphatase inhibitor tablet (Thermo Fisher #A32959)]. Lysates were clarified by centrifugation and 50 μL/well added into the human phospho-Mer DuoSet IC ELISA (R&D Systems #DYC2579-2). Assay was performed according to manufacturer's instructions and sample phospho-Mer concentrations were extrapolated using human phospho-Mer control (R&D Systems #841793) as a standard. Positive control wells (100% activity) contained DMSO-treated cell lysates. Negative control wells (0% activity) contained reference inhibitor-treated cell lysates. IC50 values were calculated by nonlinear regression analysis using a 4-parameter logistic curve fit in ActivityBase XE (IDBS).

KDR = KDR (Homo sapiens (Human), UniProt P35968); test: KDR autophosphorylation ELISA in HUVEC cells; conditions: cellular, VEGF165-stimulated, phospho-KDR ELISA
Experimental: Human umbilical vein endothelial cells or HUVEC (Lonza #C2519A) were seeded at 2×10^4 cells/well onto 96-well plates (Corning #3904), in EGM-2 growth medium (Lonza #CC-3162) containing 1% Penicillin Streptomycin (Thermo Fisher #15140-122). HUVEC cells were incubated at 37° C., 5% CO2 for 24 h and then starved for 24 h in serum-free EBM-2 basal medium (Lonza #CC-3156) containing 1% Penicillin Streptomycin. Test compounds were serially diluted to produce an 8-point dose curve in fresh serum-free medium to a final concentration of 0.3% DMSO (vehicle) and added to the cells and incubated for 1 h. Cells were then stimulated with 100 ng/mL recombinant human VEGF165 (R&D Systems #293-VE-500) for 5 min, washed with cold PBS, and immediately lysed with 130 μL of cold 1× lysis buffer [20 mM Tris, 137 mM sodium chloride, 2 mM EDTA, 10% glycerol, 1% NP-40 alternative, 1 mM activated sodium orthovanadate, 1 mM PefaBloc SC (Sigma-Aldrich #11429868001), protease/phosphatase inhibitor tablet (Thermo Fisher #A32959)]. Lysates were collected and 100 μL/well added into the human phospho-KDR Duo Set IC ELISA (R&D Systems #DYC 1766-2). Assay was performed according to manufacturer's instructions and sample phospho-KDR concentrations were extrapolated using human phospho-KDR control (R&D Systems #841421) as a standard. Positive control wells (100% activity) contained VEGF165-stimulated, DMSO-treated cell lysates. Negative control wells (0% activity) contained non-stimulated cell lysates. IC50 values were calculated by nonlinear regression analysis using a 4-parameter logistic curve fit in ActivityBase XE (IDBS).

AXL = AXL (Homo sapiens (Human), UniProt P30530); test: AXL autophosphorylation ELISA in A-172 cells; conditions: cellular, Gas6-stimulated, phospho-AXL ELISA
Experimental: A-172 glioblastoma cells (ATCC #CRL-1620) were seeded at 2.5×10^5 cells/well onto 24-well plates (Greiner #662165), in DMEM (Thermo Fisher #11995-040) containing 10% FBS (Thermo Fisher #26140-079), 1% MEM NEAA (Thermo Fisher #11140-050), 1% GlutaMax (Thermo Fisher #35050-061), and 1% Penicillin Streptomycin (Thermo Fisher #15140-122). A-172 cells were incubated at 37° C., 5% CO2 for 24 h and then starved for 24 h in serum-free medium. Test compounds were serially diluted to produce an 8-point dose curve in fresh serum-free medium to a final concentration of 0.3% DMSO (vehicle) and added to the cells and incubated for 1 h. Cells were then stimulated with 1 μg/mL recombinant human Gas6 (R&D Systems #885-GSB-500) for 15 min, washed with cold PBS, and immediately lysed with 150 μL of cold IX lysis buffer [20 mM Tris, 137 mM sodium chloride, 2 mM EDTA, 10% glycerol, 1% NP-40 alternative, 1 mM activated sodium orthovanadate, 1 mM PefaBloc SC (Sigma-Aldrich #11429868001), protease/phosphatase inhibitor tablet (Thermo Fisher #A32959)]. Lysates were collected and 100 μL/well added into the human phospho-AXL Duo Set IC ELISA (R&D Systems #DYC2228-2). Assay was performed according to manufacturer's instructions and sample phospho-AXL concentrations were extrapolated using human phospho-AXL control (R&D Systems #841645) as a standard. Positive control wells (100% activity) contained Gas6-stimulated, DMSO-treated cell lysates. Negative control wells (0% activity) contained Gas6-stimulated, reference inhibitor-treated cell lysates. IC50 values were calculated by nonlinear regression analysis using a 4-parameter logistic curve fit in ActivityBase XL (IDBS).

Sequence of Mer (Q12866 21-999): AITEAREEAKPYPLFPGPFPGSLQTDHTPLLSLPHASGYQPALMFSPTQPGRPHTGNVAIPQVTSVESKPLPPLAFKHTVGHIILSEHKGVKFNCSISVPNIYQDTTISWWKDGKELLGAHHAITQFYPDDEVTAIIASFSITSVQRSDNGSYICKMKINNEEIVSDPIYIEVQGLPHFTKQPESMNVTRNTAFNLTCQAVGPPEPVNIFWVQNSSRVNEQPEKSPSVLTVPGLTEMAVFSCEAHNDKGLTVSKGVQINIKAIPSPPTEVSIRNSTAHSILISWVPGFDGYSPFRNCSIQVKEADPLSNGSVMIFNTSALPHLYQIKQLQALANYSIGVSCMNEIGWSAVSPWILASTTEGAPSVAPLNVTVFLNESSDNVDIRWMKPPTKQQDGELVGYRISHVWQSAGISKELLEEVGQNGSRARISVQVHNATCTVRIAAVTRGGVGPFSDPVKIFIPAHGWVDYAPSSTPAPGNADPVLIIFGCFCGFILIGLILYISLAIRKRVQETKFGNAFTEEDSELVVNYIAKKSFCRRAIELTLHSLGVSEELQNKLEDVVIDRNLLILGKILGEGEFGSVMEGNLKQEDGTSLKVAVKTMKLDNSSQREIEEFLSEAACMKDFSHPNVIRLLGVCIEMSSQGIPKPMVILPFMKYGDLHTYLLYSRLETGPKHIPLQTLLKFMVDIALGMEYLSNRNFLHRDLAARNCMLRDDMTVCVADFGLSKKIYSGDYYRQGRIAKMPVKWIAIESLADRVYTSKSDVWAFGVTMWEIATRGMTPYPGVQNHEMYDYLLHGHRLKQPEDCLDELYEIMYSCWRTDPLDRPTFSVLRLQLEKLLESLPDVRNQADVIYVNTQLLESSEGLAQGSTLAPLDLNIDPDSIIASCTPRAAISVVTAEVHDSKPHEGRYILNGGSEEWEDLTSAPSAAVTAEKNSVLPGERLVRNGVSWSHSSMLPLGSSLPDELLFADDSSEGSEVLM
Sequence of AXL (P30530 26-894): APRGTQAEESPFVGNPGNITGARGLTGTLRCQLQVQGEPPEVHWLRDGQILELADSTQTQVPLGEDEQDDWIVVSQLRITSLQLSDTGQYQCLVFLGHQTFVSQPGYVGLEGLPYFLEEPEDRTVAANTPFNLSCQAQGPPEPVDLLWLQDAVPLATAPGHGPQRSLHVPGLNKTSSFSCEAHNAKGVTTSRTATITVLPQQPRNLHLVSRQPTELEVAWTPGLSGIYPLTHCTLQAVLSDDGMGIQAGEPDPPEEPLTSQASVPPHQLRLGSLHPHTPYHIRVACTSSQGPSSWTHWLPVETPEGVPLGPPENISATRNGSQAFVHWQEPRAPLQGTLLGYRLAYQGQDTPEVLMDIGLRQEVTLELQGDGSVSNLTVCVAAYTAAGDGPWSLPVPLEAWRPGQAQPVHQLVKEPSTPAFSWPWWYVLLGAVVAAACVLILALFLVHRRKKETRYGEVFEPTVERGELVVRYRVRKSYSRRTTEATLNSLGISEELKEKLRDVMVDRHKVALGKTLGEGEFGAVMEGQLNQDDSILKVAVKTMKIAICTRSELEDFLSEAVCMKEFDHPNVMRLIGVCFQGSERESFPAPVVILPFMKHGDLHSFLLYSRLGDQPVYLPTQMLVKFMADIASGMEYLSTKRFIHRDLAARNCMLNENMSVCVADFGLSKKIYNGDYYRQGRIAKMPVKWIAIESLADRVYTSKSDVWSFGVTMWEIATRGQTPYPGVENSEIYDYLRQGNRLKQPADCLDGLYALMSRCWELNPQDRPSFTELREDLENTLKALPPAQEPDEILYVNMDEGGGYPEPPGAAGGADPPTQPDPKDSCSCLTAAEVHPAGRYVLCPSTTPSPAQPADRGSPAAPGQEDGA
Sequence of KDR (P35968 20-1356): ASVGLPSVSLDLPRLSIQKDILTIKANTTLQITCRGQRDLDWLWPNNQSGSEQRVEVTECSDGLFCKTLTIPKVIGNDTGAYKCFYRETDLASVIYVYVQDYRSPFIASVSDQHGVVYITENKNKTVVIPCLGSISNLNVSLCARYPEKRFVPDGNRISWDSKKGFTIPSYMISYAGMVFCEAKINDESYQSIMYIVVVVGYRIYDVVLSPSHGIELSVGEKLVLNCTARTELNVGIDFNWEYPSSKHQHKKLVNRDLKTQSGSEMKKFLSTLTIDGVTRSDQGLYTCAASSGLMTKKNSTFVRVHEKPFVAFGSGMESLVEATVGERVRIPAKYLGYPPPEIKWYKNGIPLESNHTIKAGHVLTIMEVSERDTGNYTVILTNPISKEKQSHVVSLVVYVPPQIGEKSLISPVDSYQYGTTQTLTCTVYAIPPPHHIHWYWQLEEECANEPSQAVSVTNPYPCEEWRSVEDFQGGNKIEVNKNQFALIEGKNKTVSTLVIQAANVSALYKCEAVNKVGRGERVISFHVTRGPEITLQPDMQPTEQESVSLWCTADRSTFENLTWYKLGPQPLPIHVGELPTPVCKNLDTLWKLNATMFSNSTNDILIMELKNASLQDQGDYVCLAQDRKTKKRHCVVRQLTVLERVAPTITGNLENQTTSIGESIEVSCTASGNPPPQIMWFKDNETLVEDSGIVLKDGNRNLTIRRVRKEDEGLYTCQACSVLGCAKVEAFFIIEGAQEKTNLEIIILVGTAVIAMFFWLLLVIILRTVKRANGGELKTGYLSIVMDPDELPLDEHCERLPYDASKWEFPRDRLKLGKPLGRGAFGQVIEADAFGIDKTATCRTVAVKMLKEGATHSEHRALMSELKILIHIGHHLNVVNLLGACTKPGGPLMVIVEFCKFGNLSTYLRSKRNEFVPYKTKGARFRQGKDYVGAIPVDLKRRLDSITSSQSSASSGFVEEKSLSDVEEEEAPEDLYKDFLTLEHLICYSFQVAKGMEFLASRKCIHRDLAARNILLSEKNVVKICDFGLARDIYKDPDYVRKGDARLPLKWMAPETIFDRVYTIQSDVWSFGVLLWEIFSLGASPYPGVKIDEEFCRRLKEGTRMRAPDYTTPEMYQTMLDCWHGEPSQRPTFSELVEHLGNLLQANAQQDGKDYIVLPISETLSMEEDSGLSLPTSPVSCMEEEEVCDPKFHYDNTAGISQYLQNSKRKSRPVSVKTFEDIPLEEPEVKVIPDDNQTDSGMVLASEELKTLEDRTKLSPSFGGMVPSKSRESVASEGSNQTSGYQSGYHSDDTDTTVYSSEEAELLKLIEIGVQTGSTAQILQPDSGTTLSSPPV
Sequence of Met (P08581 25-1390): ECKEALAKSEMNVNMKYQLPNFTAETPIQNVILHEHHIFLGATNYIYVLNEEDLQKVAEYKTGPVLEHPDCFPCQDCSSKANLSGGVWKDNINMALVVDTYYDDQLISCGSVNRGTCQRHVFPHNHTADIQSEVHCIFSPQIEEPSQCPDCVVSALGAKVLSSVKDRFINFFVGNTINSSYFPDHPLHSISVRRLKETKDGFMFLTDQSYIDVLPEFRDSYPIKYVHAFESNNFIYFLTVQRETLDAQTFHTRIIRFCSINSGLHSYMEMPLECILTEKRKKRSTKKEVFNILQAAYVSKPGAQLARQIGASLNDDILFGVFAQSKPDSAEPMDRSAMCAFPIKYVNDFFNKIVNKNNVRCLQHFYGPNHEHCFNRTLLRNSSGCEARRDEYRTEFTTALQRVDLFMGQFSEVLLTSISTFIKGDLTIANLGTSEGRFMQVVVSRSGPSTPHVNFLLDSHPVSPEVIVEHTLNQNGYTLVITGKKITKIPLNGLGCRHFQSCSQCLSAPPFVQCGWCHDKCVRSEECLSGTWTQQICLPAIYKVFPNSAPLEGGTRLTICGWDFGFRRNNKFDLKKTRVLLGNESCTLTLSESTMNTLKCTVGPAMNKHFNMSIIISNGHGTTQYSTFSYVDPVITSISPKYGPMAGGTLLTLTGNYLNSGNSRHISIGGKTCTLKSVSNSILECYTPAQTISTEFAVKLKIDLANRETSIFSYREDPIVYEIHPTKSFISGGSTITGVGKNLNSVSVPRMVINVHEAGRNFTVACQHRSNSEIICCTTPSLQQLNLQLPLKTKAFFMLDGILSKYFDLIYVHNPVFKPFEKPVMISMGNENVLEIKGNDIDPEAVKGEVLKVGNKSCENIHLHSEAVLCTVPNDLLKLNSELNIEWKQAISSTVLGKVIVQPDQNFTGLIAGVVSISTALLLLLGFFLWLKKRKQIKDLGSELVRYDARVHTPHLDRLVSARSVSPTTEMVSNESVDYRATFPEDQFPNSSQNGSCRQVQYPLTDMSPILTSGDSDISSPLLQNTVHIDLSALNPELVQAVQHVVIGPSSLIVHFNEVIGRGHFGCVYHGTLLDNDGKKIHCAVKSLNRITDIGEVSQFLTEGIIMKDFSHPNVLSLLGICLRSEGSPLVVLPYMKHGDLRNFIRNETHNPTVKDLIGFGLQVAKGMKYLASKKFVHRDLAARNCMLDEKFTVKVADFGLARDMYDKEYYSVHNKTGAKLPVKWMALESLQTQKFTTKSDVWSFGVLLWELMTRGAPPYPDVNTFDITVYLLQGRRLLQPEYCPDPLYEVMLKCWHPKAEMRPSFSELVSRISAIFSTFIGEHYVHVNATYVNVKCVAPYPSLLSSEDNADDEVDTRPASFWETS

IC50 (Met)	IC50 (Mer)	IC50 (KDR)	IC50 (AXL)	Compound
10 to 100 nM	10 to 100 nM	100 to 300 nM	10 to 100 nM	COc1cnc2c(Oc3cc(F)c(NC(=O)C4(C(=O)Nc5ccc(F)cc5)CC4)cc3F)ncnc2c1 [Compound 19, 1-N′-[2,5-difluoro-4-(7-methoxypyrido[3,2-d]pyrimidin-4-yl)oxyphenyl]-1-N-(4-fluorophenyl)cyclo-propane-1,1-dicarboxamide]
10 to 100 nM	10 to 100 nM	10 to 100 nM	≤ 10 nM	COc1cc2ncnc(Oc3ccc(NC(=O)C4(C(=O)Nc5ccc(F)cc5)CC4)c(F)c3)c2nc1OC [Compound 31, 1-N′-[4-(6,7-dimethoxy-pyrido[3,2-d]pyrimidin-4-yl)oxy-2-fluorophenyl]-1-N-(4-fluorophenyl)cyclo-propane-1,1-dicarboxamide]
10 to 100 nM	≤ 10 nM	10 to 100 nM	≤ 10 nM	COc1cc2ncnc(Oc3ccc(NC(=O)C4(C(=O)Nc5ccc(F)cc5)CC4)c(F)c3F)c2nc1OC [Compound 34, 1-N′-[4-(6,7-dimethoxypyrido[3,2-d]pyrimidin-4-yl)oxy-2,3-difluorophenyl]-1-N-(4-fluorophenyl)cyclo-propane-1,1-dicarbox-amide]
≤ 10 nM	≤ 10 nM	10 to 100 nM	≤ 10 nM	COc1cc2ncnc(Oc3cc(F)c(NC(=O)C4(C(=O)Nc5ccc(F)cc5)CC4)cc3F)c2nc1OC [Compound 35, 1-N′-[4-(6,7-dimethoxypyrido[3,2-d]pyrimidin-4-yl)oxy-2,5-difluorophenyl]-1-N-(4-fluorophenyl)cyclo-propane-1,1-dicarboxamide]
100 to 300 nM	10 to 100 nM	10 to 100 nM	10 to 100 nM	COc1nc2c(Oc3ccc(NC(=O)C4(C(=O)Nc5ccc(F)cc5)CC4)cc3C)ncnc2cc1OCCCN1CCOCC1 [Compound 68, 1-N-(4-fluorophenyl)-1-N′-[4-[6-methoxy-7-(3-morpholin-4-ylpropoxy)pyrido[3,2-d]pyrimidin-4-yl]oxy-3-methylphenyl]cyclopropane-1,1-dicarboxamide]
10 to 100 nM	≤ 10 nM	10 to 100 nM	≤ 10 nM	COc1nc2c(Oc3ccc(NC(=O)C4(C(=O)Nc5ccc(F)cc5)CC4)c(F)c3)ncnc2cc1OCCCN1CCOCC1 [Compound 69, 1-N′-[2-fluoro-4-[6-methoxy-7-(3-morpholin-4-ylpropoxy)pyrido[3,2-d]pyrimidin-4-yl]oxyphenyl]-1-N-(4-fluorophenyl)cyclo-propane-1,1-dicarboxamide]
100 to 300 nM	10 to 100 nM	100 to 300 nM	10 to 100 nM	COc1nc2c(Oc3ccc(NC(=O)C4(C(=O)Nc5ccc(F)cc5)CC4)c(Cl)c3)ncnc2cc1OCCCN1CCOCC1 [Compound 70, 1-N′-[2-chloro-4-[6-methoxy-7-(3-morpholin-4-ylpropoxy)pyrido[3,2-d]pyrimidin-4-yl]oxyphenyl]-1-N-(4-fluorophenyl)cyclo-propane-1,1-dicarboxamide]
100 to 300 nM	> 300 nM	10 to 100 nM	10 to 100 nM	COc1nc2c(Oc3ccc(NC(=O)C4(C(=O)Nc5ccc(F)cc5)CC4)c(C)c3)ncnc2cc1OCCCN1CCOCC1 [Compound 71, 1-N-(4-fluorophenyl)-1-N′-[4-[6-methoxy-7-(3-morpholin-4-ylpropoxy)pyrido[3,2-d]pyrimidin-4-yl]oxy-2-methylphenyl]cyclopropane-1,1-dicarboxamide]
10 to 100 nM	10 to 100 nM	10 to 100 nM	≤ 10 nM	COc1nc2c(Oc3cc(F)c(NC(=O)C4(C(=O)Nc5ccc(F)cc5)CC4)cc3F)ncnc2cc1OCCCN1CCOCC1 [Compound 72, 1-N′-[2,5-difluoro-4-[6-methoxy-7-(3-morpholin-4-ylpropoxy)pyrido[3,2-d]pyrimidin-4-yl]oxyphenyl]-1-N-(4-fluorophenyl)cyclo-propane-1,1-dicarboxamide]
10 to 100 nM	≤ 10 nM	≤ 10 nM	≤ 10 nM	COc1nc2c(Oc3ccc(NC(=O)C4(C(=O)Nc5ccc(F)cc5)CC4)c(F)c3F)ncnc2cc1OCCCN1CCOCC1 [Compound 73, 1-N′-[2,3-difluoro-4-[6-methoxy-7-(3-morpholin-4-ylpropoxy)pyrido[3,2-d]pyrimidin-4-yl]oxyphenyl]-1-N-(4-fluoro-phenyl)cyclopropane-1,1-dicarboxamide]
10 to 100 nM	10 to 100 nM	10 to 100 nM	10 to 100 nM	COc1nc2c(Oc3ccc(NC(=O)C4(C(=O)Nc5ccc(F)cc5)CC4)cc3C#N)ncnc2cc1OCCCN1CCOCC1 [Compound 75, 1-N′-[3-cyano-4-[6-methoxy-7-(3-morpholin-4-ylpropoxy)pyrido[3,2-d]pyrimidin-4-yl]oxyphenyl]-1-N-(4-fluorophenyl)cyclo-propane-1,1-dicarboxamide]
